These results are taken from ChEMBL document CHEMBL1799908, “Discovery and preliminary SARs of keto-indoles as novel indoleamine 2,3-dioxygenase (IDO) inhibitors” (Eur J Med Chem, 2011).

Activity calls are given as the source filed them. The calls are words filed in the database; no cut-off is given here.

For data set [1], the target named is Tryptophan 2,3-dioxygenase (Mus musculus) (UniProt P48776). Nature of the data set: Inhibition of mouse TDO expressed in mouse mastocytoma P815B cells using L-Trptophan as substrate at 20 uM after overnight by HPLC. The class given is cell-based.
Data set [2] in a line: Cytotoxicity against mouse mastocytoma P815B cells assessed as cell viability at 20 uM after overnight incubation by MTT assay. In kind it is cell-based. The note with it: for viability at 20 µM: mastocytoma P815B cells, read-out: Activity; for Activity: p815b, 20 µM. Background: Formazan colour is commonly taken as a measure of viable cells.
The target in data set [3] is Indoleamine 2,3-dioxygenase 1 (Mus musculus) (UniProt P28776). As to the kind of experiment: Inhibition of mouse IDO expressed in mouse mastocytoma P815B cells using L-Trptophan as substrate at 20 uM after overnight by HPLC. In kind it is cell-based.
Data set [4] has as its target T1, Indoleamine 2,3-dioxygenase 1 (Homo sapiens, UniProt P14902). Nature of the data set: Competitive inhibition of histidine-tagged human recombinant IDO expressed in bacterial strain BL21 AI using L-Trptophan as substrate measured at 490 nm wavelength after 6 min by colorimetric assay.
Target sequence in this assay (P14902 whole entry): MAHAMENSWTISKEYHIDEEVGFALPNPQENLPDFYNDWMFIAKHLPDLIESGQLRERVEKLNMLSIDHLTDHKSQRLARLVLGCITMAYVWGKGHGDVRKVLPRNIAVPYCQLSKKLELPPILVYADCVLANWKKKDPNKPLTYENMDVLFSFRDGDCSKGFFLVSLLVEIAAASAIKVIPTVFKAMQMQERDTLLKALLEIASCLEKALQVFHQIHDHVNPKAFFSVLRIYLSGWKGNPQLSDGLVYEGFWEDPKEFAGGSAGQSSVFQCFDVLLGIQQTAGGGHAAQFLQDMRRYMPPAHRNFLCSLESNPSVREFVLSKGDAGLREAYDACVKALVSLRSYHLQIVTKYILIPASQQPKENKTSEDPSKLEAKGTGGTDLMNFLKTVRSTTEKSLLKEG
In data set [5] the target is T1, Indoleamine 2,3-dioxygenase 1. Nature of the data set: Uncompetitive inhibition of histidine-tagged human recombinant IDO expressed in Escherichia coli using L-Trptophan as substrate assessed as hypochromic effect by UV analysis.
Target sequence in this assay (P14902 whole entry, looked up): as the sequence (P14902 whole entry) above
For data set [6] the target is unchanged. Nature of the data set: Inhibition of histidine-tagged human recombinant IDO expressed in bacterial strain BL21 AI using L-Trptophan as substrate measured at 490 nm wavelength at 100 uM after 6 min by colorimetric assay.
Target sequence in this assay (P14902 whole entry, looked up): as the sequence (P14902 whole entry) above
Data set [7] has the same target. Nature of the data set: Uncompetitive inhibition of histidine-tagged human recombinant IDO expressed in bacterial strain BL21 AI using L-Trptophan as substrate measured at 490 nm wavelength after 6 min by colorimetric assay.
Target sequence in this assay (P14902 whole entry): as above

Chain of Tryptophan 2,3-dioxygenase (Mus musculus) (P48776 whole entry): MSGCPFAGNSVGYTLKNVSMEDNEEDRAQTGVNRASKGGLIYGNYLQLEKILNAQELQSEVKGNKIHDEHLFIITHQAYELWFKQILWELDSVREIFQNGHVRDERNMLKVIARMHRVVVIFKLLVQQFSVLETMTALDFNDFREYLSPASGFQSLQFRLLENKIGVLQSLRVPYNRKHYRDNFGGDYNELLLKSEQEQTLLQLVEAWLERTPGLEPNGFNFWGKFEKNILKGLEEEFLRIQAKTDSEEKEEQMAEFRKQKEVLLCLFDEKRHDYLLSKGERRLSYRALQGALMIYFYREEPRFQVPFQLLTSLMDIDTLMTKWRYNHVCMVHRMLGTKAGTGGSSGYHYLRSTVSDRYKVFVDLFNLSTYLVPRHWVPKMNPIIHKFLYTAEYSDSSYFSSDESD
Chain of Indoleamine 2,3-dioxygenase 1 (Mus musculus) (P28776 whole entry, looked up): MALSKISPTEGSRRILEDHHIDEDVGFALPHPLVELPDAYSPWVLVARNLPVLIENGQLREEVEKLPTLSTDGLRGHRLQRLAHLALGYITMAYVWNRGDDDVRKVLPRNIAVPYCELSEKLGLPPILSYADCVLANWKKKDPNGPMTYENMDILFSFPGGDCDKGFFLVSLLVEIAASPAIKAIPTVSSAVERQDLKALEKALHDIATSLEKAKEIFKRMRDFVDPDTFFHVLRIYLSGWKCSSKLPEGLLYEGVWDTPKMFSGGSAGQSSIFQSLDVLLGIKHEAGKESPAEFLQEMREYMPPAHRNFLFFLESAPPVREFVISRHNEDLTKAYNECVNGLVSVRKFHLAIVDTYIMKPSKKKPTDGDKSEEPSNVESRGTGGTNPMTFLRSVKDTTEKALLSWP

On to `c1cncc(CCc2cc3ccccc3[nH]2)c1`, for which the inhibition (in general, how much of the control response was suppressed) in data set [1] was “inactive”. The viability at 20 µM in data set [2] came out at 90%.
For the molecule `Cc1ccc2[nH]c(C(=O)Cc3cccnc3)cc2c1`, in data set [1], the inhibition entry was “inactive”. In addition, the Activity entry in data set [2] was “Non-toxic”.
For `O=C(Nc1cccnc1)c1cc2ccccc2[nH]1`, the inhibition result in data set [1] was “inactive”. The viability at 20 µM in data set [2] turned out to be 75%.
As for `O=C(Cc1cccnc1)c1cc2c(F)cccc2[nH]1`, the inhibition entry in data set [1] is “inactive”. Further, the viability at 20 µM in data set [2] turned out to be 80%.
On to `COc1ccc2[nH]c(C(=O)Cc3cccnc3)cc2c1`, for which, in data set [1], the inhibition entry was “inactive”. Moreover, the Activity entry in data set [2] is recorded as “Non-toxic”.
As for `O=C(Cc1cccnc1)c1cc2cc(Cl)ccc2[nH]1`, the inhibition result in data set [1] is “inactive”. The viability at 20 µM in data set [2] was 90%.
With `Cn1cc(C[C@H](N)C(=O)O)c2ccccc21` [(L)-1-METHYLTRYPTOPHAN], in data set [1], the inhibition result was “inactive”. The Activity entry in data set [2] is recorded as “Non-toxic”.
Regarding `O=C(Cc1cccnc1)c1cc2cc(F)ccc2[nH]1`, in data set [1], the inhibition entry was “inactive”. Besides, the Activity entry in data set [2] is given as “Non-toxic”.
With `Cn1c(C(=O)Cc2cccnc2)cc2ccccc21`, in data set [1], the inhibition entry was “inactive”. In addition, in data set [2], the Activity result is given as “Non-toxic”.
On to `Cn1c(C(=O)Cc2cccnc2)cc2cc(F)ccc21`, for which the inhibition result in data set [1] and in data set [3] was “inactive” throughout. In addition, in data set [4], the IC50 – broadly, the concentration that gives 50% inhibition – is 92 µM. Besides, the viability at 20 µM in data set [2] came to 95%.
For `O=C(Cc1cccnc1)c1cc2cc([N+](=O)[O-])ccc2[nH]1`, in data set [1], the inhibition entry was “inactive”. For the same molecule, in data set [2], the viability at 20 µM was 90%.
Turning to `O=C(Cc1cccnc1)c1cc2ccccc2[nH]1`, the inhibition entry in data set [1] was “inactive”. For the same molecule, the outcome in data set [5] was Active. In addition, the inhibition in data set [6] is greater than 50%. The Ki – broadly, the dissociation constant of the complex between target and ligand, obtained from inhibition or displacement – in data set [7] is 190 µM. Moreover, the Activity entry in data set [2] is recorded as “Non-toxic”.
In the case of `OC(Cc1cccnc1)c1cc2ccccc2[nH]1` (configuration not stated), in data set [1], the inhibition result was “inactive”. In addition, the viability at 20 µM in data set [2] came to 90%.
`N#Cc1ccc(-n2nnc3ccccc32)cc1`: the inhibition in data set [6] is greater than 50%.
